Columns and labels:
[1] = Solubility in common topical excipients and solvent mixtures; type: physicochemical
[2] = Stress testing with pure excipients (adduct formation); type: physicochemical
Description: Stress testing with pure excipients was also conducted.

[3] = Solubility in IPA/DMSO and IPA/water/DMSO solutions; type: physicochemical
[4] = Accumulation in epidermis and dermis of human skin after permeability assay; type: in vitro ADME
Description: All chambers were covered to minimize evaporation.
The concentration of the test compounds is expressed as the amount (μg) normalized by the tissue weight of each layer (g).

[5] = Human cadaver skin permeability assay, Franz diffusion cells (flux, Papp)
Description: Static, vertical glass Franz diffusion cells were used for the permeability assay.
The dosing solution with control compounds (atenolol and testosterone, 100 μM each) was prepared in PBS buffer at pH 7.4 immediately prior to the start of the permeability experiments. The skin was kept frozen at −80° C. until the time of the study. The skin was thawed at room temperature and cut to appropriate size (˜2×2 cm). The thickness of each piece was measured and they were grouped based on thickness to ensure that the average thickness was similar across groups. Tissue was mounted in the Franz cell diffusion chamber and clamped between the donor and receiver chambers. The exposed surface area of the Franz cell diffusion chamber was 1.77 cm^2. The receiver compartment was filled with 8 mL PBS at pH 7.4 with 1% Oleth 20 for all test groups, or PBS at pH 7.4 for the control group. The reservoir also contained a magnetic stir bar, stirring at 400 RPM to ensure homogeneity of the reservoir contents. […]
Each formulated test compound (35.4 μL by volume) was dispensed into the donor chamber using the reverse pipetting technique, after warming the cream in a water bath at 37° C. […] Each formulation was also analyzed to verify the concentration of the test compound. […]

CN(C(=O)c1ccc(F)cc1C(F)(F)F)C1CCN(c2nnc(-c3ccnn3C)c3ccccc23)CC1 [4-fluoro-N-methyl-N-(1-(4-(1-methyl-1H-pyrazol-5-yl)phthalazin-1-yl)piperidin-4-yl)-2-(trifluoromethyl)benzamide]
Solubility in cosolvent, aqueous and lipophilic mixtures ([1]; Table 2 (not given)): solubility is highest in ethanol/water mixtures | Solubility ([1]; solvent DMSO): 27.65 mg/g | Solubility ([1]; solvent EtOH): 13.66 mg/g | Solubility ([1]; solvent EtOH-Water (1:1) v/v): 2.51 mg/g | Solubility ([1]; solvent EtOH-Water (3:1) v/v): 18.76 mg/g | Solubility ([1]; solvent IPA-Water (3:1) v/v): 18.73 mg/g | Solubility ([1]; solvent Isopropyl alcohol): 5.15 mg/g | Solubility ([1]; solvent NMP): 107.02 mg/g | adduct formation ([2]; excipients containing unhindered hydroxyl groups (ethanol, benzyl alcohol, Transcutol)): Adducts were observed | adduct formation ([2]; isopropyl alcohol): no adduct was observed | solubility in IPA/DMSO solutions ([3]; above 20% DMSO, increasing DMSO, absence of water): increased | solubility in IPA/water/DMSO solutions ([3]; as percentage of water increased (5%, 10%, 20% or 30% water)): less solubility

Cc1c(C(=O)Nc2ccc(N3C[C@@H](C)O[C@@H](C)C3)nc2)cccc1-c1ccc(OC(F)(F)F)cc1 [LDE225]
accumulation in dermis, comparison [4]: significantly less | accumulation in epidermis, comparison [4]: significantly less | flux, comparison between formulations ([5]; human cadaver skin): tended to be lower than that of Formulation A2

C[C@]12CC[C@H]3[C@@H](CCC4=CC(=O)CC[C@@]43C)[C@@H]1CC[C@@H]2O [testosterone]
ratio of testosterone to atenolol Papp ([5]; control compounds, 100 μM each in PBS pH 7.4): greater than 2
